Measured values from patent US12570655B2, “Cysteine covalent modifiers of AKT1 and uses thereof” (Terremoto Biosciences, Inc., priority 2023, dated 2026).
Where two headings read alike, the source gives them in different places.

Columns and labels:
Format in all cases: cell-based
[1] = system: LAPC4 prostate cancer cells; experiment: Antiproliferative effects in LAPC4 cells (CellTiter Glo); conditions: LAPC4 cells (AKT1 E17K allele), read-out: LAPC4 proliferation IC50
Method in brief: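 Cells grown in IMDM supplemented with 12% FBS plus 1% P/S were treated for 72 h with DMSO-dissolved compounds. ATP-based luminescence was fitted to a log(inhibitor) versus response Hill model, giving IC50.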

[2] = biological target: T1, AKT2 (Homo sapiens, UniProt P31751); experiment: Live cell AKT2 target engagement by NanoBRET competitive probe displacement; conditions: HEK293 cells transfected with kinase-NanoLuciferase fusion, 2 h at 37° C.
T1 construct: expressed in transfected cells; host or cells: HEK293
T1 sequence (P31751 whole entry, the tested form may be a part): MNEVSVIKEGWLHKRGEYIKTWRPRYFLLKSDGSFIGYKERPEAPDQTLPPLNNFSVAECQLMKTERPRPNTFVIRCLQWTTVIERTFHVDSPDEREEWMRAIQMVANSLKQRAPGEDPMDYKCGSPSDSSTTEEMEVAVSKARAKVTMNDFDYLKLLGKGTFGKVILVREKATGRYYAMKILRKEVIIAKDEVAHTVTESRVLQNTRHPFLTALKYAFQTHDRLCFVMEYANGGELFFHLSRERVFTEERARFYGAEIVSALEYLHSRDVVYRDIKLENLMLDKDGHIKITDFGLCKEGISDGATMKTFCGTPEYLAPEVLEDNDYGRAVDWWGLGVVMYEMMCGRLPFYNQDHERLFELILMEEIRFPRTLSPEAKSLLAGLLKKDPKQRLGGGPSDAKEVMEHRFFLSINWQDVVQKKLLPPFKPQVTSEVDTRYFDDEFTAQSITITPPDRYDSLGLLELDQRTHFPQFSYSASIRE
Method in brief: (§1)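 Live-cell competitive tracer displacement in HEK293 expressing NanoLuciferase-tagged kinase. Compound and ATP-competitive tracer (~EC50) are co-incubated 2 h at 37 °C; BRET (E600/E460) gives IC50.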

[3] = biological target: T2, AKT1 WT (Homo sapiens, UniProt P31749); experiment: Live cell AKT1 WT target engagement by NanoBRET competitive probe displacement; conditions: HEK293 cells transfected with kinase-NanoLuciferase fusion, 2 h at 37° C.
T2 construct: expressed in transfected cells; host or cells: HEK293
T2 sequence (P31749 whole entry, the tested form may be a part): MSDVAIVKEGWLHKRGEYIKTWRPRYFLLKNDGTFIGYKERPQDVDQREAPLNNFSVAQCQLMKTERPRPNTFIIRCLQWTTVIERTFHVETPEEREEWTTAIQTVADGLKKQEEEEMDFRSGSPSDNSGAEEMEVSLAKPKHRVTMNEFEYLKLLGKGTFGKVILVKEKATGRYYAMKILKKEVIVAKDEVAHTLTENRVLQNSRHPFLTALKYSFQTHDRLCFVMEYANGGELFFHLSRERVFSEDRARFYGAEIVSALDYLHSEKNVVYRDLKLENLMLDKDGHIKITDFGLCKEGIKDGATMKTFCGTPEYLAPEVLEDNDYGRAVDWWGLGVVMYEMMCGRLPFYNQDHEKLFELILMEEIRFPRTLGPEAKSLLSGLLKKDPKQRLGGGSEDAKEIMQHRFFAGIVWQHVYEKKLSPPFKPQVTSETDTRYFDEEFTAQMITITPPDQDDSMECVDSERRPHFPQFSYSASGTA
Method in brief: as §1

[4] = biological target: T3, AKT1 E17K (Homo sapiens, UniProt P31749, E17K); experiment: Live cell AKT1 E17K target engagement by NanoBRET competitive probe displacement; conditions: HEK293 cells transfected with kinase-NanoLuciferase fusion, 2 h at 37° C.
T3 construct: expressed in transfected cells; host or cells: HEK293
T3 sequence (P31749 whole entry E17K, the tested form may be a part): as the sequence (P31749 whole entry, the tested form may be a part) above, with E17K counted along it
Method in brief: as §1

Row | IC50 ([1]; Homo sapiens, LAPC4, 72 h) | IC50 [2] | IC50 [3] | IC50 [4] | IC50 ([1]; 72 h) | SMILES
1 | 0.298 µM | 0.628 µM | 0.0218 µM | 0.141 µM | – | C=CC(=O)N1CCC(N[C@H]2CCc3cc(-n4c(-c5cccnc5N)nc5ccc(-c6cccnc6)nc54)ccc32)CC1 [Example 110, (S)-1-(4-((5-(2-(2-aminopyridin-3-yl)-5-(pyridin-3-yl)-3H-imidazo[4,5-b]pyridin-3-yl)-2,3-dihydro-1H-inden-1-yl)amino)piperidin-1-yl)prop-2-en-1-one]
2 | 0.103 µM | 0.073 µM | 0.432 µM | 0.0138 µM | – | C=CC(=O)N1CCC(N[C@H]2CCc3cc(-n4c(-c5cccnc5N)nc5ccc(-c6nnc(C)s6)nc54)ccc32)CC1 [Example 257, (S)-1-(4-((5-(2-(2-aminopyridin-3-yl)-5-(5-methyl-1,3,4-thiadiazol-2-yl)-3H-imidazo[4,5-b]pyridin-3-yl)-2,3-dihydro-1H-inden-1-yl)amino)piperidin-1-yl)prop-2-en-1-one]
3 | – | 0.0333 µM | 0.0821 µM | 0.0169 µM | 0.129 µM | C=CC(=O)N1CCC(N[C@@H]2c3ccc(-n4c(-c5cccnc5N)nc5ccc(-n6cccn6)nc54)cc3CC2F)CC1C(F)F (single isomer, unassigned) [Example 302, 1-((2*,4*)-4-(((1R,2*)-5-(2-(2-aminopyridin-3-yl)-5-(1H-pyrazol-1-yl)-3H-imidazo[4,5-b]pyridin-3-yl)-2-fluoro-2,3-dihydro-1H-inden-1-yl)amino)-2-(difluoromethyl)piperidin-1-yl)prop-2-en-1-one]
4 | – | 0.021 µM | 0.162 µM | 0.00721 µM | 0.0763 µM | C=CC(=O)N1CCC(N[C@@H]2c3ccc(-n4c(-c5cccnc5N)nc5ccc(-n6ccc(F)n6)nc54)cc3CC2F)C[C@@H]1C (single isomer, unassigned) [Example 270, 1-((2S,4*)-4-(((1R,2*)-5-(2-(2-aminopyridin-3-yl)-5-(3-fluoro-1H-pyrazol-1-yl)-3H-imidazo[4,5-b]pyridin-3-yl)-2-fluoro-2,3-dihydro-1H-inden-1-yl)amino)-2-methylpiperidin-1-yl)prop-2-en-1-one]
5 | 0.334 µM | 0.0977 µM | 0.756 µM | 0.0219 µM | – | C=CC(=O)N1CCC(N[C@H]2CCc3cc(-n4c(-c5cccnc5N)nc5ccc(C6CC6)nc54)ccc32)C(C)C1 (single isomer, unassigned) [Example 229, 1-((3*,4*)-4-(((S)-5-(2-(2-aminopyridin-3-yl)-5-cyclopropyl-3H-imidazo[4,5-b]pyridin-3-yl)-2,3-dihydro-1H-inden-1-yl)amino)-3-methylpiperidin-1-yl)prop-2-en-1-one]
6 | – | 0.32 µM | 0.0213 µM | 0.042 µM | 0.167 µM | C=CC(=O)N1CCC(N[C@H]2CCc3cc(-n4c(-c5cccnc5N)nc5ccc(-n6cccn6)nc54)ccc32)C(OC)C1 (single isomer, unassigned) [Example 118, 1-((3*,4*)-4-(((S)-5-(2-(2-aminopyridin-3-yl)-5-(1H-pyrazol-1-yl)-3H-imidazo[4,5-b]pyridin-3-yl)-2,3-dihydro-1H-inden-1-yl)amino)-3-methoxypiperidin-1-yl)prop-2-en-1-one]
7 | – | 0.0219 µM | 0.00856 µM | 0.00834 µM | 0.0125 µM | C#CC1CC(N[C@H]2CCc3cc(-n4c(-c5cccnc5N)nc5ccc(-n6cccn6)nc54)ccc32)CCN1C(=O)C=C (single isomer, unassigned) [Example 114, 1-((2*,4*)-4-(((S)-5-(2-(2-aminopyridin-3-yl)-5-(1H-pyrazol-1-yl)-3H-imidazo[4,5-b]pyridin-3-yl)-2,3-dihydro-1H-inden-1-yl)amino)-2-ethynylpiperidin-1-yl)prop-2-en-1-one]
8 | 2.06 µM | 0.0694 µM | 0.0207 µM | 0.0428 µM | – | C=CC(=O)N1CCc2ccc(C(=O)N[C@H]3CCc4cc(-n5c(-c6cccnc6N)nc6ccc(-n7cccn7)nc65)ccc43)cc21 [Example 7, (S)-1-acryloyl-N-(5-(2-(2-aminopyridin-3-yl)-5-(1H-pyrazol-1-yl)-3H-imidazo[4,5-b]pyridin-3-yl)-2,3-dihydro-1H-inden-1-yl)indoline-6-carboxamide]
9 | – | 0.0752 µM | 0.00815 µM | 0.0229 µM | 0.0749 µM | C=CC(=O)NC1CC(N[C@H]2CCc3cc(-n4c(-c5cccnc5N)nc5ccc(-n6cccn6)nc54)ccc32)C1 (single isomer, unassigned) [Example 89, N-((1*,3*)-3-(((S)-5-(2-(2-aminopyridin-3-yl)-5-(1H-pyrazol-1-yl)-3H-imidazo[4,5-b]pyridin-3-yl)-2,3-dihydro-1H-inden-1-yl)amino)cyclobutyl)acrylamide]
10 | – | 0.16 µM | 0.244 µM | 0.0186 µM | 0.625 µM | C=CC(=O)N1CCN(N(C)C2CCc3cc(-n4c(-c5cccnc5N)nc5ccc(-n6cccn6)nc54)ccc32)CC1 (single isomer, unassigned) [Example 180, 1-(4-{[(1*)-5-[2-(2-aminopyridin-3-yl)-5-(pyrazol-1-yl)imidazo[4,5-b]pyridin-3-yl]-2,3-dihydro-1H-inden-1-yl](methyl)amino}piperazin-1-yl)prop-2-en-1-one]
11 | – | 0.0114 µM | 0.00563 µM | 0.00616 µM | 0.00502 µM | C=CC(=O)N1CCC(N[C@H]2CCc3cc(-n4c(-c5cccnc5N)nc5ccc(-n6cccn6)nc54)ccc32)CC12CCC2 (single isomer, unassigned) [Example 93, 1-((*)-8-(((S)-5-(2-(2-aminopyridin-3-yl)-5-(1H-pyrazol-1-yl)-3H-imidazo[4,5-b]pyridin-3-yl)-2,3-dihydro-1H-inden-1-yl)amino)-5-azaspiro[3.5]nonan-5-yl)prop-2-en-1-one]
12 | – | 0.0501 µM | 0.00451 µM | 0.0148 µM | 0.053 µM | C=CC(=O)N1CCC(N[C@H]2CCc3cc(-n4c(-c5cccnc5N)nc5ccc(-n6cccn6)nc54)ccc32)C(F)C1 (single isomer, unassigned) [Example 105, 1-((3*,4*)-4-(((S)-5-(2-(2-aminopyridin-3-yl)-5-(1H-pyrazol-1-yl)-3H-imidazo[4,5-b]pyridin-3-yl)-2,3-dihydro-1H-inden-1-yl)amino)-3-fluoropiperidin-1-yl)prop-2-en-1-one]
13 | 0.302 µM | 0.478 µM | 0.0222 µM | 0.152 µM | – | C=CC(=O)N1C[C@@H]2C[C@H]1CC2N[C@H]1CCc2cc(-n3c(-c4cccnc4N)nc4ccc(-n5cccn5)nc43)ccc21 (single isomer, unassigned) [Example 135, 1-[(1S,4S,5*)-5-{[(1S)-5-[2-(2-aminopyridin-3-yl)-5-(pyrazol-1-yl)imidazo[4,5-b]pyridin-3-yl]-2,3-dihydro-1H-inden-1-yl]amino}-2-azabicyclo[2.2.1]heptan-2-yl]prop-2-en-1-one]
14 | 1.57 µM | 0.208 µM | 0.0615 µM | 0.243 µM | – | C=C(F)C(=O)N1CCc2c(C(=O)N[C@H]3CCc4cc(-n5c(-c6cccnc6N)nc6ccc(-n7cccn7)nc65)ccc43)cccc21 [Example 18, (S)-N-(5-(2-(2-aminopyridin-3-yl)-5-(1H-pyrazol-1-yl)-3H-imidazo[4,5-b]pyridin-3-yl)-2,3-dihydro-1H-inden-1-yl)-1-(2-fluoroacryloyl)indoline-4-carboxamide]
15 | 0.0807 µM | 0.0242 µM | 0.158 µM | 0.00719 µM | – | C=CC(=O)N1CCC(N[C@H]2CCc3cc(-n4c(-c5cccnc5N)nc5ccc(-n6ccc(C7CCOCC7)n6)nc54)ccc32)CC1 [Example 321, 1-(4-{[(1S)-5-[2-(2-aminopyridin-3-yl)-5-[3-(oxan-4-yl)pyrazol-1-yl]imidazo[4,5-b]pyridin-3-yl]-2,3-dihydro-1H-inden-1-yl]amino}piperidin-1-yl)prop-2-en-1-one]
16 | 0.0308 µM | 0.0579 µM | 0.0129 µM | 0.0126 µM | – | C=CC(=O)N1CC2(CC(N[C@H]3CCc4cc(-n5c(-c6cccnc6N)nc6ccc(-n7cccn7)nc65)ccc43)C2)C1 [Example 31, 1-(6-{[(1S)-5-[2-(2-aminopyridin-3-yl)-5-(pyrazol-1-yl)imidazo[4,5-b]pyridin-3-yl]-2,3-dihydro-1H-inden-1-yl]amino}-2-azaspiro[3.3]heptan-2-yl)prop-2-en-1-one]
17 | – | 0.061 µM | 0.0125 µM | 0.038 µM | 0.0933 µM | C=CC(=O)N1CCN(NC2CCc3cc(-n4c(-c5cccnc5N)nc5ccc(-n6cccn6)nc54)ccc32)CC1 (single isomer, unassigned) [Example 148, (*)-1-(4-((5-(2-(2-aminopyridin-3-yl)-5-(1H-pyrazol-1-yl)-3H-imidazo[4,5-b]pyridin-3-yl)-2,3-dihydro-1H-inden-1-yl)amino)piperazin-1-yl)prop-2-en-1-one]
18 | 0.595 µM | 3.59 µM | 0.0856 µM | 0.582 µM | – | C=CC(=O)N1CCC(N[C@@H]2c3ccc(-n4c(-c5cccnc5N)nc5ccc(-n6cccn6)nc54)cc3CC2(F)F)CC1 [Example 119, 1-(4-{[(1R)-5-[2-(2-aminopyridin-3-yl)-5-(pyrazol-1-yl)imidazo[4,5-b]pyridin-3-yl]-2,2-difluoro-1,3-dihydroinden-1-yl]amino}piperidin-1-yl)prop-2-en-1-one]
